Some test systems named below: Malme-3M; HOP-92; KM12; OVCAR-8; NCI-H522; SK-OV-3; UACC-257; ACHN; RXF 393; TK-10; T47D; LOX IMVI; CAKI-1; K562; PC-3; OVCAR-5; HOP-62; HCT-116; MOLT-4; UO-31.
Holding throughout (assay): NCI-60 cell line screen, 48 h

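Each compound was tested at five concentrations against cells in 96-well plates for 48 hours. Here, GI50 denotes the concentration required for 50% inhibition of growth.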 Calls of active or inactive are those of the source. Rule as the data show it: active = GI50 up to about 1.1 µM and inactive = higher.

The results in this text go back to ChEMBL document CHEMBL1201862, “PubChem BioAssay data set” (2004).

Consider `CN1C(=O)C23CC4=CC=CC(O)C4N2C(=O)C1(CO)SS3` (stereo not given), for which the GI50 in the assay with Malme-3M was 0.223 µM (active); in the assay on HOP-92, 0.165 µM (active); in the assay on KM12, 0.0991 µM (active); in the assay with OVCAR-8 it was 0.0611 µM (active); in the assay with NCI-H522 it was 0.169 µM (active); in the assay with SK-OV-3, 1.26 µM (inactive). Besides, the GI50 is 0.299 µM (active) with UACC-257; 0.174 µM (active) in the assay with ACHN; 0.179 µM (active) in the assay with RXF 393; 0.179 µM (active) with TK-10; 0.183 µM (active) with T47D; 0.17 µM (active) in the assay with LOX IMVI. In addition, the GI50 in the assay on CAKI-1 was 0.308 µM (active); in the assay with K562, 0.139 µM (active); in the assay with PC-3, 0.167 µM (active); in the assay with OVCAR-5, 0.0526 µM (active); in the assay with HOP-62, 0.182 µM (active); in the assay with HCT-116 it was 0.107 µM (active). Moreover, the GI50 in the assay on MOLT-4 was 0.134 µM (active); in the assay on UO-31, 0.565 µM (active).

Consider `O=C(Nc1sccc1S(=O)(=O)c1ccc(Cl)cc1)c1ccc(Cl)cc1Cl`, for which the GI50 is > 100 µM (inactive) in the assay with Malme-3M; > 93.1 µM (inactive) in the assay with HOP-92; 82.2 µM (inactive) in the assay with KM12; > 100 µM (inactive) in the assay with OVCAR-8; 34.1 µM (inactive) in the assay with NCI-H522; > 100 µM (inactive) with SK-OV-3. Besides, the GI50 is 23.4 µM (inactive) in the assay with UACC-257; > 100 µM (inactive) with ACHN; > 100 µM (inactive) in the assay on RXF 393; > 100 µM (inactive) in the assay on TK-10; 19.1 µM (inactive) with T47D; > 74.6 µM (inactive) with LOX IMVI. Also, the GI50 is > 100 µM (inactive) in the assay with CAKI-1; > 53.3 µM (inactive) in the assay on K562; > 100 µM (inactive) in the assay on PC-3; > 84.5 µM (inactive) with OVCAR-5; > 100 µM (inactive) in the assay on HOP-62; > 100 µM (inactive) with HCT-116. For the same molecule, the GI50 with MOLT-4 was > 85.9 µM (inactive); with UO-31, > 100 µM (inactive).

Take `CN1CCN(CCCCN2c3ccccc3Sc3ccc(N=[N+]=[N-])cc32)CC1`: the GI50 is 2.43 µM (inactive) in the assay with Malme-3M; 2.75 µM (inactive) with HOP-92; 6.22 µM (inactive) with KM12; 13.5 µM (inactive) in the assay with OVCAR-8; 5.01 µM (inactive) in the assay with NCI-H522; > 10 µM (inactive) with SK-OV-3. Also, the GI50 in the assay with UACC-257 is 2.06 µM (inactive); in the assay with ACHN, 8.65 µM (inactive); in the assay with RXF 393, 5.16 µM (inactive); with TK-10 it was 12.7 µM (inactive); in the assay on T47D, 14.9 µM (inactive); with LOX IMVI, 2.47 µM (inactive). The GI50 was 7.29 µM (inactive) with CAKI-1; 1.89 µM (inactive) in the assay on K562; 4.65 µM (inactive) with PC-3; 9.55 µM (inactive) in the assay on OVCAR-5; 15.2 µM (inactive) in the assay with HOP-62; 3.72 µM (inactive) in the assay on HCT-116. Moreover, the GI50 is 2.41 µM (inactive) in the assay with MOLT-4 and 7.57 µM (inactive) in the assay on UO-31.

In the case of `O=C(Nc1ccc(Cl)c(Cl)c1)N1N=C2c3ccccc3CCC2C1c1ccc(Cl)cc1` (stereo not given), the GI50 in the assay on Malme-3M, with HOP-92, with KM12, with OVCAR-8, with NCI-H522 and in the assay on SK-OV-3 was > 100 µM (inactive) throughout. Moreover, the GI50 with UACC-257, in the assay with ACHN, with RXF 393, with TK-10, in the assay on T47D and in the assay with LOX IMVI was > 100 µM (inactive) each time. Besides, the GI50 in the assay with CAKI-1, with K562, with PC-3, in the assay on OVCAR-5, in the assay with HOP-62 and in the assay on HCT-116 was > 100 µM (inactive) each time. Moreover, the GI50 in the assay on MOLT-4 and with UO-31 was > 100 µM (inactive) throughout.

In the case of `Nc1ncnc2c1ncn2CCCNO`, the GI50 with Malme-3M, in the assay on HOP-92, in the assay with KM12, with OVCAR-8, in the assay with NCI-H522 and in the assay on SK-OV-3 was > 100 µM (inactive) throughout. In addition, the GI50 in the assay with UACC-257, in the assay with ACHN, in the assay with RXF 393, in the assay on TK-10, in the assay on T47D and in the assay on LOX IMVI was > 100 µM (inactive) throughout. The GI50 in the assay with CAKI-1, in the assay with K562, in the assay with PC-3, in the assay on OVCAR-5, with HOP-62 and in the assay on HCT-116 was > 100 µM (inactive) throughout. The GI50 in the assay with MOLT-4 and in the assay on UO-31 was > 100 µM (inactive) throughout.

For `COc1cccc(/C=C\c2ccnc3ccccc23)c1`, the GI50 in the assay on Malme-3M, in the assay on HOP-92, in the assay on KM12, in the assay with OVCAR-8, in the assay on NCI-H522 and in the assay with SK-OV-3 was > 10 µM (inactive) each time. Also, the GI50 in the assay with UACC-257 was > 10 µM (inactive); in the assay on ACHN, > 10 µM (inactive); in the assay with RXF 393, > 10 µM (inactive); with TK-10 it was > 10 µM (inactive); in the assay on T47D, > 10 µM (inactive); in the assay with LOX IMVI it was 9.51 µM (inactive). Moreover, the GI50 in the assay on CAKI-1, with K562, with PC-3, with OVCAR-5, in the assay on HOP-62 and with HCT-116 was > 10 µM (inactive) each time. For the same molecule, the GI50 in the assay on MOLT-4 and in the assay with UO-31 was > 10 µM (inactive) each time.

On to `CCOC(=O)c1c(CN2CCCC2)n(-c2ccccc2)c2cc(Br)c(O)cc12`, for which the GI50 was 19.5 µM (inactive) in the assay with Malme-3M; 20 µM (inactive) in the assay on HOP-92; 16.8 µM (inactive) in the assay with KM12; 22.9 µM (inactive) in the assay with OVCAR-8; 17.1 µM (inactive) with NCI-H522; 25.8 µM (inactive) with SK-OV-3. The GI50 was 17.5 µM (inactive) in the assay on UACC-257; 17.8 µM (inactive) with ACHN; 12.4 µM (inactive) in the assay with RXF 393; 20.5 µM (inactive) with TK-10; 20.7 µM (inactive) in the assay with T47D; 16 µM (inactive) in the assay on LOX IMVI. Further, the GI50 in the assay with CAKI-1 is 17.1 µM (inactive); with K562, 18.3 µM (inactive); in the assay with PC-3, 21.3 µM (inactive); in the assay on OVCAR-5, 19.1 µM (inactive); in the assay on HOP-62 it was 13.3 µM (inactive); with HCT-116 it was 16 µM (inactive). The GI50 with MOLT-4 was 17 µM (inactive); with UO-31 it was 12.1 µM (inactive).

As to `Sc1ncnc2nc[nH]c12` [MERCAPTOPURINE ANHYDROUS], the GI50 in the assay with Malme-3M is 3.66 µM (inactive); in the assay with HOP-92 it was 2.94 µM (inactive); with KM12, 7.57 µM (inactive); with OVCAR-8, 2.54 µM (inactive); in the assay on NCI-H522, 1.62 µM (inactive); in the assay on SK-OV-3, 1.03 µM (active). In addition, the GI50 in the assay with UACC-257 was 14.4 µM (inactive); in the assay with ACHN it was 6.27 µM (inactive); in the assay on RXF 393, 29.5 µM (inactive); in the assay on TK-10, 1.94 µM (inactive); with T47D, 3.55 µM (inactive); with LOX IMVI, 0.383 µM (active). Further, the GI50 with CAKI-1 was 3.21 µM (inactive); in the assay with K562 it was 0.351 µM (active); in the assay on PC-3, 4.39 µM (inactive); in the assay with OVCAR-5, 8.63 µM (inactive); with HOP-62 it was 1.75 µM (inactive); in the assay with HCT-116, 2.37 µM (inactive). The GI50 is 1.61 µM (inactive) with MOLT-4 and 6.85 µM (inactive) in the assay on UO-31.

Take `O=C1c2ccccc2C(=O)N1CCCCCCNOCCCN1C(=O)c2ccccc2C1=O`: the GI50 in the assay on Malme-3M is 41.3 µM (inactive); in the assay on HOP-92, 34 µM (inactive); in the assay with KM12, 27.1 µM (inactive); with OVCAR-8, 38.9 µM (inactive); in the assay on NCI-H522, 26.5 µM (inactive); with SK-OV-3 it was 56.9 µM (inactive). Further, the GI50 is 31.1 µM (inactive) in the assay with UACC-257; 36.7 µM (inactive) with ACHN; 17.5 µM (inactive) with RXF 393; 59 µM (inactive) in the assay with TK-10; 16.8 µM (inactive) in the assay on T47D; 36.2 µM (inactive) in the assay on LOX IMVI. Further, the GI50 with CAKI-1 was 50.4 µM (inactive); with K562, 29.7 µM (inactive); in the assay on PC-3, 28.3 µM (inactive); in the assay with OVCAR-5, > 100 µM (inactive); with HOP-62 it was 45.1 µM (inactive); in the assay on HCT-116, 48.8 µM (inactive). Besides, the values for the GI50 with MOLT-4 and in the assay on UO-31 were 19.3 µM (inactive) and 34 µM (inactive), respectively.

As to `COc1ccccc1Nc1nc(N)nc(N)c1N`, the GI50 in the assay with Malme-3M is > 100 µM (inactive); in the assay on HOP-92, > 100 µM (inactive); in the assay on KM12, > 100 µM (inactive); in the assay with OVCAR-8, > 100 µM (inactive); in the assay with NCI-H522, 18.1 µM (inactive); in the assay with SK-OV-3, > 100 µM (inactive). For the same molecule, the GI50 in the assay on UACC-257 is 60.3 µM (inactive); with ACHN it was > 100 µM (inactive); with RXF 393, > 100 µM (inactive); in the assay with TK-10 it was > 100 µM (inactive); with T47D, 58.5 µM (inactive); in the assay with LOX IMVI it was 20.8 µM (inactive). In addition, the GI50 in the assay on CAKI-1 is 58.7 µM (inactive); in the assay on K562, 45.1 µM (inactive); with PC-3, 90.8 µM (inactive); with OVCAR-5 it was > 100 µM (inactive); with HOP-62 it was > 100 µM (inactive); with HCT-116 it was 19 µM (inactive). For the same molecule, the GI50 was 14.7 µM (inactive) with MOLT-4 and > 100 µM (inactive) in the assay on UO-31.
